Data published in PubChem BioAssay AID1963975 (Molecular Pharmacology Branch, DTP, NCI, 2024).

System: 624824-186-R-J2-PDC multicell spheroids, viability
Test: Anticancer human tumor 624824-186-R-J2-PDC patient-derived colon adenocarcinoma cell line growth inhibition [PI3K]
Conditions: for viability, T/C: stronger effect = lower value
Summary of the method: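 We assembled tumor spheroids that included a stromal compartment of HUVEC and MSCs, then exposed them to targeted agents alone and together with PI3K pathway inhibitors. Concentration series descended by half-log from clinically achievable Cmax levels. Viability served as the endpoint.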

[1] = curve of first compound, second compound 0.0316 µM
[2] = curve of first compound, second compound 0.1 µM
[3] = curve of first compound, second compound 0.316 µM
[4] = curve of first compound, second compound 1 µM
[5] = curve of first compound, second compound 3.16 µM
[6] = curve of first compound, second compound 10 µM
[7] = second compound 0.0316 µM, first compound 0.0316 µM
[8] = second compound 0.0316 µM, first compound 0.1 µM
[9] = second compound 0.0316 µM, first compound 0.316 µM
[10] = second compound 0.0316 µM, first compound 1 µM
[11] = second compound 0.0316 µM, first compound 3.16 µM
[12] = second compound 0.0316 µM, first compound 10 µM
[13] = second compound 0.1 µM, first compound 0.0316 µM
[14] = second compound 0.1 µM, first compound 0.1 µM
[15] = second compound 0.1 µM, first compound 0.316 µM
[16] = second compound 0.1 µM, first compound 1 µM
[17] = second compound 0.1 µM, first compound 3.16 µM
[18] = second compound 0.1 µM, first compound 10 µM
[19] = second compound 0.316 µM, first compound 0.0316 µM
[20] = second compound 0.316 µM, first compound 0.1 µM
[21] = second compound 0.316 µM, first compound 0.316 µM
[22] = second compound 0.316 µM, first compound 1 µM
[23] = second compound 0.316 µM, first compound 3.16 µM
[24] = second compound 0.316 µM, first compound 10 µM
[25] = second compound 1 µM, first compound 0.0316 µM
[26] = second compound 1 µM, first compound 0.1 µM
[27] = second compound 1 µM, first compound 0.316 µM
[28] = second compound 1 µM, first compound 1 µM
[29] = second compound 1 µM, first compound 3.16 µM
[30] = second compound 1 µM, first compound 10 µM
[31] = second compound 3.16 µM, first compound 0.0316 µM
[32] = second compound 3.16 µM, first compound 0.1 µM
[33] = second compound 3.16 µM, first compound 0.316 µM
[34] = second compound 3.16 µM, first compound 1 µM
[35] = second compound 3.16 µM, first compound 3.16 µM
[36] = second compound 3.16 µM, first compound 10 µM
[37] = second compound 10 µM, first compound 0.0316 µM
[38] = second compound 10 µM, first compound 0.1 µM
[39] = second compound 10 µM, first compound 0.316 µM
[40] = second compound 10 µM, first compound 1 µM
[41] = second compound 10 µM, first compound 3.16 µM
[42] = second compound 10 µM, first compound 10 µM
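Also: spheroids exposed to agents for 7 days before viability read.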
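For viability, T/C in this document: 100% = DMSO vehicle treated spheroids.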

SMILES: CC1(C)CCC(CN2CCN(c3ccc(C(=O)NS(=O)(=O)c4ccc(NCC5CCOCC5)c([N+](=O)[O-])c4)c(Oc4cnc5[nH]ccc5c4)c3)CC2)=C(c2ccc(Cl)cc2)C1 + Cc1nc(NC(=O)N2CCCC2C(N)=O)sc1-c1ccnc(C(C)(C)C(F)(F)F)c1
- IC50 [1]: > 10 µM
- IC50 [2]: > 10 µM
- IC50 [3]: > 10 µM
- IC50 [4]: > 10 µM
- IC50 [5]: > 10 µM
- IC50 [6]: 6.9 µM
- viability, T/C [7]: 103%
- viability, T/C [8]: 93.7%
- viability, T/C [9]: 95.9%
- viability, T/C [10]: 68.5%
- viability, T/C [11]: 70.9%
- viability, T/C [12]: 67.1%
- viability, T/C [13]: 84.3%
- viability, T/C [14]: 88.3%
- viability, T/C [15]: 88.2%
- viability, T/C [16]: 80.8%
- viability, T/C [17]: 84.1%
- viability, T/C [18]: 51.7%
- viability, T/C [19]: 82.9%
- viability, T/C [20]: 86.9%
- viability, T/C [21]: 75.6%
- viability, T/C [22]: 72.1%
- viability, T/C [23]: 67.1%
- viability, T/C [24]: 67.5%
- viability, T/C [25]: 91.3%
- viability, T/C [26]: 78.9%
- viability, T/C [27]: 79.6%
- viability, T/C [28]: 80.3%
- viability, T/C [29]: 100%
- viability, T/C [30]: 77.3%
- viability, T/C [31]: 68.1%
- viability, T/C [32]: 76.9%
- viability, T/C [33]: 80.3%
- viability, T/C [34]: 94.7%
- viability, T/C [35]: 83.6%
- viability, T/C [36]: 50.4%
- viability, T/C [37]: 73%
- viability, T/C [38]: 79.4%
- viability, T/C [39]: 68.5%
- viability, T/C [40]: 74.3%
- viability, T/C [41]: 82.6%
- viability, T/C [42]: 37.9%

SMILES: Cn1ncc(Cl)c1-c1cc(C(=O)NC(CN)Cc2cccc(F)c2)sc1Cl (configuration not stated) + CC(Nc1ncnc2nc[nH]c12)c1cc2cccc(Cl)c2c(=O)n1-c1ccccc1
- IC50 [1]: > 10 µM
- IC50 [2]: 9.49 µM
- IC50 [3]: > 10 µM
- IC50 [4]: 7.07 µM
- IC50 [5]: > 10 µM
- IC50 [6]: 9.26 µM
- viability, T/C [7]: 73.9%
- viability, T/C [8]: 85.7%
- viability, T/C [9]: 71.5%
- viability, T/C [10]: 68.3%
- viability, T/C [11]: 57.2%
- viability, T/C [12]: 55.1%
- viability, T/C [13]: 80.1%
- viability, T/C [14]: 67.8%
- viability, T/C [15]: 80.7%
- viability, T/C [16]: 73%
- viability, T/C [17]: 67.6%
- viability, T/C [18]: 49.2%
- viability, T/C [19]: 95.3%
- viability, T/C [20]: 86.4%
- viability, T/C [21]: 67%
- viability, T/C [22]: 69%
- viability, T/C [23]: 63.6%
- viability, T/C [24]: 47.8%
- viability, T/C [25]: 82.1%
- viability, T/C [26]: 95.8%
- viability, T/C [27]: 71%
- viability, T/C [28]: 78.2%
- viability, T/C [29]: 62.3%
- viability, T/C [30]: 44.2%
- viability, T/C [31]: 79.9%
- viability, T/C [32]: 91.6%
- viability, T/C [33]: 78.8%
- viability, T/C [34]: 70.2%
- viability, T/C [35]: 69.8%
- viability, T/C [36]: 50.6%
- viability, T/C [37]: 104%
- viability, T/C [38]: 73.2%
- viability, T/C [39]: 89.7%
- viability, T/C [40]: 68.7%
- viability, T/C [41]: 64.1%
- viability, T/C [42]: 47.1%

SMILES: C#Cc1c(F)ccc2cc(O)cc(-c3ncc4c(N5CC6CCC(C5)N6)nc(OCC56CCCN5CC(F)C6)nc4c3F)c12 (configuration not stated) + Cc1nc(NC(=O)N2CCCC2C(N)=O)sc1-c1ccnc(C(C)(C)C(F)(F)F)c1
- IC50 [1]: > 10 µM
- IC50 [2]: > 10 µM
- IC50 [3]: > 10 µM
- IC50 [4]: > 10 µM
- IC50 [5]: > 10 µM
- IC50 [6]: > 10 µM
- viability, T/C [7]: 86.3%
- viability, T/C [8]: 82.9%
- viability, T/C [9]: 70.8%
- viability, T/C [10]: 80.9%
- viability, T/C [11]: 96.7%
- viability, T/C [12]: 71%
- viability, T/C [13]: 90.9%
- viability, T/C [14]: 83.5%
- viability, T/C [15]: 73%
- viability, T/C [16]: 76.6%
- viability, T/C [17]: 88.6%
- viability, T/C [18]: 60.4%
- viability, T/C [19]: 74.4%
- viability, T/C [20]: 67.2%
- viability, T/C [21]: 81.1%
- viability, T/C [22]: 84.2%
- viability, T/C [23]: 70.9%
- viability, T/C [24]: 73.2%
- viability, T/C [25]: 97%
- viability, T/C [26]: 82.7%
- viability, T/C [27]: 76.1%
- viability, T/C [28]: 82.1%
- viability, T/C [29]: 79.8%
- viability, T/C [30]: 82.2%
- viability, T/C [31]: 78.3%
- viability, T/C [32]: 83.8%
- viability, T/C [33]: 69.5%
- viability, T/C [34]: 81.8%
- viability, T/C [35]: 81.2%
- viability, T/C [36]: 71.5%
- viability, T/C [37]: 73.7%
- viability, T/C [38]: 74.2%
- viability, T/C [39]: 60%
- viability, T/C [40]: 58.5%
- viability, T/C [41]: 58%
- viability, T/C [42]: 56.3%

SMILES: CC(Cn1ccc(-c2ccc(C#N)c(Cl)c2)n1)NC(=O)c1cc(C(C)O)[nH]n1 (configuration not stated)
- viability, T/C (compound 0.0316 µM): 91.5% [middle of 4 runs]
- viability, T/C (compound 0.316 µM): 89.7% [middle of 4 runs]
- viability, T/C (compound 1 µM): 92.9% [middle of 4 runs]
- viability, T/C (compound 3.16 µM): 101% [middle of 4 runs]
- viability, T/C (compound 10 µM): 106% [middle of 4 runs]
- IC50 (curve of compound): > 10 µM
